Test results reported in patent publication US5516797A, “Immunosuppressive compounds” (Vertex Pharmaceuticals, Incorporated, priority 1994, dated 1996).

Key:
[1] = molecular target: T1, FK-506 binding protein (FKBP) (Homo sapiens, UniProt P62942); assay: Competitive binding to FKBP against [3H]dihydro-FK-506 (apparent Kd); conditions: competition with [3H]dihydro-FK-506
[2] = molecular target: T1, FK-506 binding protein (FKBP); assay: Inhibition of PPIase (rotamase) enzyme activity of FKBP (apparent Ki); type: biochemical; conditions: substrate N-succinylAla-Ala-Pro-Phe-p-nitroanilide, chymotrypsin-coupled
Text: The inhibition of the PPIase (rotamase) enzyme activity of the FKBP (apparent "Ki" values) can also be measured according to the methods described by either Harding, M. W. et al., Nature 341:758-760 (1989) or Siekierka, J. J. et al., Nature 341:755-757 (1989). The cis-trans isomerization of the proline-alanine peptide bond in a model substrate, N-succinylAla-Ala-Pro-Phe-p-nitroanilide, is monitored spectrophotometrically in a coupled assay with chymotrypsin, which releases 4-nitroanilide from the trans form of the substrate. Fischer, G. et al., Nature 337:476-478 (1989). The inhibitory effect of the addition of different concentrations of inhibitor on the extent of the reaction is determined, and analysis of the change in first order rate constant as a function of inhibitor concentration yields an estimate of the apparent Ki value.

[3] = system: PBLs stimulated with LB human viral transformed B lymphoblastoid cells; assay: MLR bioassay LB: inhibition of proliferation in mixed lymphocyte reaction; type: cell-based; conditions: Lymphoblastoid cell, pulsed on day 6, harvested 24 h later
Protocol: (§1) LB and JVMhuman viraltransformed B lymphoblastoid cell lines stimulated t
(§2) proliferate in a mixed lymphocyte reaction (MLR). The compounds are
(§3) evaluated on their ability to inhibit this proliferation.
(§4) Fresh peripheral blood lymphocytes (PBLs) from LeukoPak cells or whole blood from random normal blood donors (tested HIV-negative and hepatitis negative) are isolated and separated by density centrifugation over Histopaque 1077 (Sigma Chemical Co., St. Louis, Mo.). The murine CTLL cytotoxic T cell line and the human Jurkat T cell line are from ATCC (CTLL-2 ATCC TIB214, JURKAT CLONE E6-1 ATCC TIBl52). The human allogeneic B cell lines used for activation of the fresh PBLs are EBV-transformed lymphocytes from normal healthy adult donors with two completely different HLAhaplotypes. All cell lines were routinely tested for the presence of Mycolasma contamination using the GibcoMycotect test kit and are Mycolasma-free. Culture medium consksts of RPMI 1640 (Gibco, Grand Island, N.Y.) containing penicillin (50 U/ml) and streptomycin (50 μg/ml), L-glutamine 2 mM, 2 mercaptoethanol (5×10^-5), 10% heat-inactivated FCS and 10 mM HEPES.
(§5) All chemical stocks were dissolved in DMSO.
(§6) MLR Bioassays ("LB" and "JVM")
(§7) Antigen activated proliferation of PBLs in a primary mixed lymphocyte reaction was assessed in the presence or absence of different concentrations of tested compounds and control drugs. 5×10^4 fresh PBLs were stimulated with 5×10^3 of Mitomycin C treated-allogeneic EBV-transformed β-lymphoglastoid cells, IB and JVM, in a final volume of 200 μl per well in 96-well round-bottomed plates (Mishell, B. B. and S. M. Shiigi, Selected Methods in Cellular Immunology W. H. Freeman and Co., San Francisco, Calif. (1980); Nelson, P. A. et al., Transplantation 50:286 (1990)). Cultures were pulsed on day 6, harvested 24 h later and counted as in previous section.

[4] = system: PBLs stimulated with JVM human viral transformed B lymphoblastoid cells; assay: MLR bioassay JVM: inhibition of proliferation in mixed lymphocyte reaction; type: cell-based; conditions: Lymphoblastoid cell, pulsed on day 6, harvested 24 h later
Protocol: as §1, §2, §3, §4, §5, §6, §7

[5] = system: human peripheral blood lymphocytes; assay: Mitogenesis assay OKT3: inhibition of proliferation of human PBLs; type: cell-based; conditions: Lymphocyte, OKT3 (10^-4 dilution final), 48 h incubation
Protocol: (§8) PMA and OKT3mitogens used to stimulate proliferation of human peripheral
(§9) blood lymphocytes (PBC). Compounds are evaluated on their ability to
as §4, §5
(§10) Mitogenesis Assays ("PMA" and "OKT3")
(§11) After 48 h incubation (37° C., 5% CO2), cells were pulsed with 1 μCi of ^3 H-thymidine, harvested 24 h later with a Tom Tek cell harvester, and counted in LKB β-scintillation counter.

[6] = system: human peripheral blood lymphocytes; assay: Mitogenesis assay PMA: inhibition of proliferation of human PBLs; type: cell-based; conditions: Lymphocyte, PMA (10 ng/ml) plus ionomycin (250 ng/ml), 48 h incubation
Protocol: as §8, §9, §4, §5, §10, §11

T1 sequence (P62942 whole entry): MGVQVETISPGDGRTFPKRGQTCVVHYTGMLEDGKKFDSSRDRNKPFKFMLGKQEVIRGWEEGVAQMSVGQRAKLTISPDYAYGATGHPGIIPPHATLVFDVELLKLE

Compound	Kd [1]	Ki [2]	IC50 [3]	IC50 [4]	IC50 [5]	IC50 [6]
O=C(C(=O)N1CCC[C@H]1C(=O)OCc1ccccc1)c1ccccc1 [Compound 2]	> 5 µM	25 µM	–	–	–	–
O=C(C(=O)N1CCCC[C@H]1C(=O)Oc1ccc2ccccc2c1)c1ccccc1 [Compound 6]	1 µM	7 µM	–	–	–	–
COc1ccccc1C(=O)C(=O)N1CCCC[C@H]1C(=O)OCc1ccccc1 [Compound 8]	> 75 µM	17 µM	–	–	–	–
COc1ccc(C(=O)C(=O)N2CCCC[C@H]2C(=O)OCc2ccccc2)cc1 [Compound 10]	5 µM	5 µM	–	–	–	–
COc1cc(OC)cc(C(=O)C(=O)N2CCCC[C@H]2C(=O)OCc2ccccc2)c1 [Compound 11]	0.6 µM	2 µM	–	–	–	–
COc1cccc(OC)c1C(=O)C(=O)N1CCCC[C@H]1C(=O)OCc1ccccc1 [Compound 12]	25 µM	50 µM	–	–	–	–
O=C(C(=O)N1CCCC[C@H]1C(=O)OCc1ccccc1)c1ccc(F)cc1 [Compound 14]	10 µM	4 µM	–	–	–	–
O=C(C(=O)N1CCCC[C@H]1C(=O)OCc1ccccc1)c1cccc([N+](=O)[O-])c1 [Compound 15]	> 75 µM	160 µM	–	–	–	–
O=C(C(=O)N1CCCC[C@H]1C(=O)OCc1ccccc1)c1ccccn1 [Compound 17]	> 1000 µM	130 µM	–	–	–	–
O=C(C(=O)N1CCCC[C@H]1C(=O)OCc1ccccc1)c1cccc[n+]1[O-] [Compound 18]	10 µM	> 500 µM	–	–	–	–
CC(C)(C)OC(=O)[C@@H]1CCCN1C(=O)C(=O)c1ccco1 [Compound 19]	> 500 µM	200 µM	–	–	–	–
O=C(C(=O)N1CCCC[C@H]1C(=O)OCc1ccccc1)c1ccco1 [Compound 20, (S)-Benzyl N-(2-furylglyoxyl)pipecolate]	> 12 µM	–	–	–	–	–
O=C(C(=O)N1CCCC[C@H]1C(=O)OCc1ccccc1)c1c[nH]c2ccccc12 [Compound 21]	20 µM	25 µM	–	–	–	–
O=C(Cc1ccccc1[N+](=O)[O-])C(=O)N1CCC[C@H]1C(=O)OCc1ccccc1 [Compound 27]	> 25 µM	26 µM	–	–	–	–
COC(=O)C(=O)N1CCC[C@H]1C(=O)OC(C)(C)C [Compound 29]	> 500 µM	600 µM	–	–	–	–
C=CCOC(=O)[C@@H]1CCCCN1C(=O)C(=O)OC [Compound 30]	> 25 µM	190 µM	–	–	–	–
COC(=O)C(=O)N1CCCC[C@H]1C(=O)OCc1ccccc1 [Compound 31]	> 50 µM	–	–	–	–	–
COC(=O)C(=O)N1CCCC[C@H]1C(=O)OCCC1CCCCC1 [Compound 32]	> 40 µM	45 µM	–	–	–	–
COC(=O)C(=O)N1CCCC[C@H]1C(=O)OCCCC1CCCCC1 [Compound 33]	12 µM	–	–	–	–	–
COC(=O)C(=O)N1CCCC[C@H]1C(=O)OC/C(C)=C/c1ccc(OC)cc1 [Compound 36]	> 30 µM	40 µM	–	–	–	–
COC(=O)C(=O)N1CCCC[C@H]1C(=O)OC/C(C)=C/[C@H]1CC[C@@H](O)CC1 [Compound 39]	> 20 µM	70 µM	–	–	–	–
CCC(=O)C(=O)N1CCC[C@H]1C(=O)OCc1ccccc1 [Compound 41]	> 300 µM	400 µM	–	–	–	–
COc1cccc(C(=O)C(=O)N2CCC[C@H]2C(=O)OCc2ccccc2)c1 [Compound 42]	80 µM	5 µM	–	–	–	–
O=C(OCc1ccccc1)[C@@H]1CCCCN1C(=O)C(=O)C1(O)CCCCO1 (stereo partly shown) [Compound 50]	0.35 µM	12 µM	–	–	–	–

Compound	Kd [1]	Ki [2]	IC50 [3]	IC50 [4]	IC50 [5]	IC50 [6]
C[C@@H](OC(=O)[C@@H]1CCCCN1C(=O)C(=O)c1ccccc1)c1ccccc1 [Compound 51]	1 µM	1.5 µM	–	–	–	–
CC(C)(C)/C=C/C(=O)C(=O)N1CCCC[C@H]1C(=O)OCc1ccccc1 [Compound 54]	3 µM	9 µM	–	–	–	–
O=C(C(=O)N1CCCC[C@H]1C(=O)OCCCCc1ccccc1)C1CCOCC1 [Compound 101]	–	0.44 µM	> 10 µM	> 10 µM	> 10 µM	> 10 µM
COc1ccc(C(=O)C(=O)N2CCCC[C@H]2C(=O)OCCCCc2ccccc2)cc1C1CCCCC1 [Compound 102]	–	14 µM	10 µM	10 µM	> 10 µM	> 10 µM
COc1ccc(COCc2coc(C(=O)C(=O)N3CCCC[C@H]3C(=O)OCCCCc3ccccc3)c2)cc1 [Compound 103]	–	0.7 µM	10 µM	> 10 µM	10 µM	7 µM
CC(C)(C)C(=O)C(=O)N1CCCC[C@H]1C(=O)OCCCCc1ccccc1 [Compound 104]	–	0.18 µM	> 10 µM	> 10 µM	> 10 µM	4 µM
CCC(=O)C(=O)N1CCCC[C@H]1C(=O)OCCCCc1ccccc1 [Compound 105]	–	1.6 µM	> 10 µM	> 10 µM	> 10 µM	> 10 µM
COc1cc(C(=O)C(=O)N2CCCC[C@H]2C(=O)OCCCn2cnc3ccccc32)cc(OC)c1OC [Compound 106]	–	0.11 µM	> 10 µM	> 10 µM	> 10 µM	7 µM
COc1cc(C(=O)C(=O)N2CCCC[C@H]2C(=O)OCCCn2cnc3cncnc32)cc(OC)c1OC [Compound 107]	–	0.13 µM	> 10 µM	> 10 µM	> 10 µM	6.5 µM
O=C(OCc1ccccc1)[C@@H]1CCCN1C(=O)/C=C/c1ccc2c(c1)OCO2 [Compound 109, (S)-3-(3,4-Methylenedioxyphenyl)-prop-2-enoylproline benzyl ester]	> 15 µM	3 µM	–	–	–	–
O=C(OCc1ccccc1)[C@@H]1CCCCN1C(=O)/C=C/c1ccc2c(c1)OCO2 [Compound 110]	> 4 µM	3 µM	–	–	–	–
COc1ccc(/C=C/C(=O)N2CCC[C@H]2C(=O)OCc2ccccc2)cc1 [Compound 111]	> 30 µM	6 µM	–	–	–	–
COc1ccc(/C=C/C(=O)N2CCCC[C@H]2C(=O)OCc2ccccc2)cc1 [Compound 112, (S)-Benzyl N-(4-Methoxycinnamoyl)pipecolate]	> 8 µM	4 µM	–	–	–	–
COc1cc(/C=C/C(=O)N2CCC[C@H]2C(=O)OCc2ccccc2)cc(OC)c1OC [Compound 115]	> 25 µM	450 µM	–	–	–	–
CN(C)c1ccc(/C=C/C(=O)N2CCCC[C@H]2C(=O)OCc2ccccc2)cc1 [Compound 116]	> 5 µM	20 µM	–	–	–	–
O=C(OCc1ccccc1)[C@@H]1CCCCN1C(=O)/C=C/c1ccc([N+](=O)[O-])cc1 [Compound 117]	> 5 µM	14 µM	–	–	–	–
O=C(OCc1ccccc1)[C@@H]1CCCCN1C(=O)/C=C/c1c[nH]c2ccccc12 [Compound 120]	> 8 µM	> 60 µM	–	–	–	–
COC(=O)C(=O)N(C)CC(=O)OCc1ccccc1 [Compound 124]	> 200 µM	1000 µM	–	–	–	–
COC(=O)C(=O)N(C)[C@@H](C)C(=O)OCc1ccccc1 [Compound 125]	> 200 µM	400 µM	–	–	–	–
COC(=O)C(=O)N(C)[C@H](C(=O)OCc1ccccc1)C(C)C [Compound 126]	> 200 µM	170 µM	–	–	–	–
CCN(C(=O)C(=O)OC)[C@@H](C)C(=O)OC(C)(C)C [Compound 128]	> 500 µM	> 400 µM	–	–	–	–
COc1ccc(/C=C/C(=O)N(C)[C@@H](C)C(=O)OCc2ccccc2)cc1 [Compound 129, (S)-N-3-(4-methoxyphenyl)-prop-2-enoyl-N-methylalanine benzyl ester]	> 150 µM	80 µM	–	–	–	–
COc1ccc(/C=C/C(=O)N(C)[C@H](C(=O)OCc2ccccc2)C(C)C)cc1 [Compound 130]	> 20 µM	30 µM	–	–	–	–
